The values that follow are results of earlier work, collected in patent publication US8048906B2, “Optically pure and enriched isomers of chelating ligands and contrast agents” (Catalyst Medical, priority 2003, dated 2011).

The conditions of this series: binds to HA; peptide isolated from a random 12-mer phage peptide library (Mummert et al., J. Exp. Med. 2000).

For the sequence GAHWQFNALTVR, the Kd was roughly 1000 nM.
